Measured values taken from PMC5994430, “Mitochondrial Delivery of Phenol Substructure Triggers Mitochondrial Depolarization and Apoptosis of Cancer Cells” (Frontiers in Pharmacology, 2018).

Experiments:
Assay type in all cases: cell-based, Human
A549 cells [1] = experiment: Mitochondrial mass (MitoTracker Green staining); conditions: 0.1 μM, 4 h
Description: The amount of proteins in mitochondrial extracts, normalized to the total amount of cellular proteins, was considered an index of mitochondrial mass ([Jean et al., 2015]). Mitochondria biogenesis was evaluated by measuring the expressions of subunit I of COX-I, which is encoded by mitochondrial DNA, and of the SDH-A of complex II, which is encoded by nuclear DNA, using the MitoBiogenesis^TM In-Cell ELISA Kit (Abcam), following the manufacturer’s instructions. The unit (U) of each protein/mg mitochondrial proteins were calculated. Results were expressed as COX-1/SDH-A ratio.
0.5 × 10^5 cells were grown on sterile glass coverslips. […] The samples were analyzed with an Olympus FV300 laser scanning confocal microscope equipped with a Blue Argon (488 nm) laser, a Green Helium Neon (543 nm) laser, and FluoView 300 software (Olympus Biosystems, Hamburg, Germany). […]
[t] […] (E,F) The electron transport was measured spectrophotometrically in duplicates. ATP levels in mitochondrial extracts was measured by a chemiluminescence-based assay, in duplicates. […] (G,H) ROS amount in mitochondrial extracts and mitochondrial damage were measured fluorimetrically, in duplicates. […] There were no statistically significant differences between untreated (ctrl) and compound 1/compound 2-treated BEAS-2B cells for all the parameters analyzed in this figure.

A549 cells [2] = experiment: Mitochondrial depolarization (JC-1); conditions: 0.1 μM, 4 h
Description: (§1) Mitochondrial depolarization was measured by staining cells with the fluorescent probe JC-1 (Biotium Inc., Hayward, CA, United States), as described ([Riganti et al., 2015a]). The red fluorescence, index of polarized mitochondria, was detected at 550 nm (λ excitation) and 600 nm (λ emission); the green fluorescence, index of depolarized and damaged mitochondria, was detected at 485 nm (λ excitation) and 535 nm (λ emission). The fluorescence units were used to calculate the percentage of green-fluorescent versus red-fluorescent mitochondria.
(§2) [t] Continuedof three experiments with similar results. (D) Confocal analysis of mitochondrial staining with MitoTracker® Green FM. Magnification: 60 × objective (0.52 numerical aperture); 10 × ocular lens. Bar: 10 μM. The micrographs are representative of three experiments with similar results. (E,F) The electron transport was measured spectrophotometrically in duplicates. ATP levels in mitochondrial extracts was measured by a chemiluminescence-based assay, in duplicates. Data are means ± SD (n = 3). For both panels: ^∗p < 0.001 vs. A549 ctrl cells; °p < 0.001 for BEAS-2B cells vs. the corresponding condition in A549 cells. (G,H) ROS amount in mitochondrial extracts and mitochondrial damage were measured fluorimetrically, in duplicates. Data are means ± SD (n = 3). For both panels: ^∗p < 0.001 vs. A549 ctrl cells; °p < 0.001 for BEAS-2B cells vs. the corresponding condition in A549 cells. There were no statistically significant differences between untreated (ctrl) and compound 1/compound 2-treated BEAS-2B cells for all the parameters analyzed in this figure.

BEAS-2B cells = experiment: Mitochondrial depolarization (JC-1); conditions: 0.1 μM, 4 h
Description: as §1, §2

U-2OS cells = experiment: Cell viability (neutral red), IC50; conditions: U-2OS osteosarcoma cells, CompuSyn

Structure (SMILES) | mitochondrial mass (A549 cells [1]) | percentage of depolarized mitochondria (A549 cells [2]) | mitochondrial depolarization (BEAS-2B cells) | IC50 (U-2OS cells; Homo sapiens, U2OS) [nM] | IC50 (U-2OS cells) [nM]
CC(=O)Oc1ccc(C[P+](c2ccccc2)(c2ccccc2)c2ccccc2)cc1.[Br-] [Compound 1] | reduced the mitochondrial mass | acutely increased | negligible modifications |  | 
O=C(Oc1ccc(C[P+](c2ccccc2)(c2ccccc2)c2ccccc2)cc1C(F)(F)F)c1ccccc1.[Br-] [Compound 2] | reduced the mitochondrial mass | acutely increased | negligible modifications | < 1000 | 630 ± 100
